Test results published in patent US4792545A, “Boholmycin antibiotic” (Bristol-Myers Company, priority 1986, dated 1988).
Values after ≈ are worked out from the molar mass of the structure shown.

Tests used:
[1] = system: Mycobacterium ranae; experiment: MIC by serial agar dilution; type: cell-based; settings: Mycobacterium ranae; medium B: No. 1001 medium; read-out: MIC
[2] = system: M. luteus PCI-1001; experiment: MIC by serial agar dilution; type: cell-based; settings: Micrococcus luteus, PCI1001; M. luteus PCI-1001; medium A: Nutrient agar; read-out: MIC
[3] = system: S. marcescens A22302; experiment: MIC by serial agar dilution; type: cell-based; settings: Serratia marcescens, A22302
[4] = system: Mycobacterium 607 D46; experiment: MIC by serial agar dilution; type: cell-based; settings: Mycobacterium 607 D46, kanamycin resistant strain; medium B: No. 1001 medium; read-out: MIC
[5] = solubility; type: physicochemical
[6] = system: E. coli JR35/c600; experiment: MIC by serial agar dilution; type: cell-based; settings: Escherichia coli, JR35/C600
[7] = system: E. coli Juhl; experiment: MIC by serial agar dilution; type: cell-based; settings: Escherichia coli, medium A: Nutrient agar, read-out: MIC
[8] = system: M. flavus D-12; experiment: MIC by serial agar dilution; type: cell-based; settings: Micrococcus flavus, D12, medium A: Nutrient agar, read-out: MIC
[9] = system: S. aureus Smith; experiment: in vivo efficacy in mice against experimental infection; settings: Staphylococcus aureus, im, 120 h; mice, i.m. just before challenge, S. aureus Smith, 5 days observation; read-out: PD50
[10] = system: P. aeruginosa A9843A; experiment: microbe, parasite or virus in culture; type: cell-based; settings: Pseudomonas aeruginosa, A9843A
[11] = system: S. marcescens A20019; experiment: MIC by serial agar dilution; type: cell-based; settings: Serratia marcescens, A20019
[12] = system: P. mirabilis A9554; experiment: MIC by serial agar dilution; type: cell-based; settings: Proteus mirabilis, medium A: Nutrient agar, read-out: MIC
[13] = system: K. pneumoniae A9678; experiment: MIC by serial agar dilution; type: cell-based; settings: Klebsiella pneumoniae, medium A: Nutrient agar, read-out: MIC
[14] = system: K. pneumoniae D-11; experiment: MIC by serial agar dilution; type: cell-based; settings: Klebsiella pneumoniae, D11, medium A: Nutrient agar, read-out: MIC
[15] = system: S. aureus 209P; experiment: MIC by serial agar dilution; type: cell-based; settings: Staphylococcus aureus; S. aureus 209P; medium A: Nutrient agar; read-out: MIC
[16] = system: E. coli A20664; experiment: MIC by serial agar dilution; type: cell-based; settings: Escherichia coli; E. coli A20664, kanamycin resistant strain; medium A: Nutrient agar; read-out: MIC
[17] = system: E. coli NIHJ; experiment: MIC by serial agar dilution; type: cell-based; settings: Escherichia coli, medium A: Nutrient agar, read-out: MIC
[18] = system: E. coli D64; experiment: stimulating growth of streptomycin-dependent E. coli D64 (paper disc); type: cell-based; settings: for Growth zone vs E. coli D64, hazy growth zone: value in parentheses
Excerpt: The results are shown in Table 4 wherein the term "boholmycin" is used for short in referring to boholmycin dihydrochloride tetrahydrate.

[19] = system: B. subtilis ATCC6633; experiment: MIC by serial agar dilution; type: cell-based; settings: Bacillus subtilis, medium A: Nutrient agar, read-out: MIC
[20] = system: E. coli Juhl; experiment: in vivo efficacy in mice against experimental infection; settings: Escherichia coli, im, 120 h; mice, i.m. just before challenge, E. coli Juhl, 5 days observation; read-out: PD50
[21] = system: P. aeruginosa A20601; experiment: MIC by serial agar dilution; type: cell-based; settings: Pseudomonas aeruginosa; P. aeruginosa A20601, kanamycin resistant strain; medium A: Nutrient agar; read-out: MIC
[22] = system: E. coli K-12; experiment: MIC by serial agar dilution; type: cell-based; settings: Escherichia coli, K12, medium A: Nutrient agar, read-out: MIC
[23] = system: E. cloacae A20364; experiment: MIC by serial agar dilution; type: cell-based; settings: Enterobacter cloacae; E. cloacae A20364, kanamycin resistant strain; medium A: Nutrient agar; read-out: MIC
[24] = system: B. anthracis IID-115; experiment: microbe, parasite or virus in culture; type: cell-based; settings: Bacillus anthracis, IID115
[25] = system: experimental infections produced by S. aureus, E. coli and K. pneumoniae; experiment: in vivo activity in mice, Table 5 overall; settings: i.m.
[26] = system: P. aeruginosa A9930; experiment: MIC by serial agar dilution; type: cell-based; settings: Pseudomonas aeruginosa, medium A: Nutrient agar, read-out: MIC
[27] = basicity; type: physicochemical
[28] = system: K. pneumoniae D-11; experiment: in vivo efficacy in mice against experimental infection; settings: Klebsiella pneumoniae, D11, im, 120 h; mice, i.m. just before challenge, K. pneumoniae D-11, 5 days observation; read-out: PD50
[29] = system: S. aureus Smith; experiment: MIC by serial agar dilution; type: cell-based; settings: Staphylococcus aureus; S. aureus Smith; medium A: Nutrient agar; read-out: MIC
[30] = stability in solution; type: physicochemical
[31] = toxic signs in mice, intravenous administration; type: in vivo; settings: up to a dose of 1,000 mg/kg
[32] = system: Mycobacterium phlei; experiment: MIC by serial agar dilution; type: cell-based; settings: Mycolicibacterium phlei; Mycobacterium phlei; medium B: No. 1001 medium; read-out: MIC
[33] = system: B. subtilis PCI-219; experiment: inhibiting growth of B. subtilis PCI-219 (paper disc); type: cell-based; settings: Bacillus subtilis, PCI219, 28° C., 18 hours
Protocol: Boholmycin dihydrochloride tetrahydrate was tested in comparison with streptomycin, glebomycin, myomycin B and kanamycin in respect to stimulating growth of E. coli D64 and in respect to inhibiting growth of B. subtilis PCI-219. The results are shown in Table 4 wherein the term "boholmycin" is used for short in referring to boholmycin dihydrochloride tetrahydrate.
*^1 8 mm paper disc containing 35 μl of test solution
*^3 Incubation at 28° C. for 18 hours

[34] = system: Mycobacterium 607 D87; experiment: MIC by serial agar dilution; type: cell-based; settings: Mycobacterium 607 D87; medium B: No. 1001 medium; read-out: MIC
[35] = system: E. cloacae A21006; experiment: MIC by serial agar dilution; type: cell-based; settings: Enterobacter cloacae; E. cloacae A21006, kanamycin resistant strain; medium A: Nutrient agar; read-out: MIC
[36] = system: S. aureus A20239; experiment: MIC by serial agar dilution; type: cell-based; settings: Staphylococcus aureus; S. aureus A20239, kanamycin resistant strain; medium A: Nutrient agar; read-out: MIC
[37] = system: bacteria; experiment: in vitro antibacterial activity, Table 3 panel overall; type: cell-based
Protocol: The minimum inhibitory concentration (MIC) of boholmycin dihydrochloride tetrahydrate was determined by a serial agar dilution method in comparison with sorbistin A1, streptomycin and kanamycin. Nutrient agar (Difco) was used for all bacteria except for strains of Mycobacterium which were tested in No. 1001 agar.

[38] = system: P. vulgaris A9436; experiment: MIC by serial agar dilution; type: cell-based; settings: Proteus vulgaris, medium A: Nutrient agar, read-out: MIC

## CNC1C(OC2C(O)C(OC3OC(CO)C(O)C(N)C3O)C(OC(N)=O)C(O)C2OC(N)=O)OCC(OC2OC(C(O)CO)C(O)C(O)C2O)C1O (centres unmarked) [Boholmycin]
[1]
  MIC: 25 µg/mL (≈ 32.7 µM)
[2]
  MIC: 200 µg/mL (≈ 262 µM)
[3]
  MIC: 100 µg/mL (≈ 131 µM)
[4]
  MIC: 25 µg/mL (≈ 32.7 µM)
[5]; methanol and ethanol
  solubility in methanol and ethanol: slightly soluble in methanol and ethanol
[5]; other organic solvents
  solubility in other organic solvents: practically insoluble in other organic solvents
[5]; water
  solubility in water: freely soluble in water
[6]
  MIC: 25 µg/mL (≈ 32.7 µM)
[7]
  MIC: 100 µg/mL (≈ 131 µM)
[8]
  MIC: 100 µg/mL (≈ 131 µM)
[9]
  ED50: 75 mg/kg
[10]
  MIC: 200 µg/mL (≈ 262 µM)
[11]
  MIC: 100 µg/mL (≈ 131 µM)
[12]
  MIC: 50 µg/mL (≈ 65.4 µM)
[13]
  MIC: 100 µg/mL (≈ 131 µM)
[14]
  MIC: 6.3 µg/mL (≈ 8.24 µM)
[15]
  MIC: 200 µg/mL (≈ 262 µM)
[16]
  MIC: 12.5 µg/mL (≈ 16.3 µM)
[17]
  MIC: 50 µg/mL (≈ 65.4 µM)
[18]; 10 mg/ml, 37° C., 45 hours
  Growth zone vs E. coli D64, hazy growth zone: 16 mm
[18]; 40 mg/ml, 37° C., 45 hours
  Growth zone vs E. coli D64: 18 mm
  Growth zone vs E. coli D64, hazy growth zone: 23 mm
[18]; result in words
  induction/stimulation of growth of streptomycin-dependent E. coli D64: induced the growth
[19]
  MIC: 50 µg/mL (≈ 65.4 µM)
[20]
  ED50: 100 mg/kg
[21]
  MIC: 12.5 µg/mL (≈ 16.3 µM)
[22]
  MIC: 25 µg/mL (≈ 32.7 µM)
[23]
  MIC: 50 µg/mL (≈ 65.4 µM)
[24]
  MIC: 25 µg/mL (≈ 32.7 µM)
[25]
  in vivo activity compared with streptomycin and kanamycin: much less active than streptomycin and kanamycin
[26]
  MIC: 100 µg/mL (≈ 131 µM)
[27]
  basicity: weakly basic
[28]
  ED50: 65 mg/kg
[29]
  MIC: 200 µg/mL (≈ 262 µM)
[30]; alkaline solution
  stability in alkaline solution: unstable in alkaline solution
[30]; neutral and acidic solution
  stability in neutral and acidic solution: reasonably stable in neutral and acidic solution
[31]
  toxic signs: did not show any toxic signs
[32]
  MIC: 6.3 µg/mL (≈ 8.24 µM)
[33]; 10 mg/ml
  zone of inhibition at 10000 µg/mL: 30 mm
[33]; 40 mg/ml
  zone of inhibition at 40000 µg/mL: 33 mm
[34]
  MIC: 25 µg/mL (≈ 32.7 µM)
[35]
  MIC: 50 µg/mL (≈ 65.4 µM)
[36]
  MIC: > 200 µg/mL
[37]; Table 3 overall, vs sorbistin A1
  antibacterial activity compared with sorbistin A1: comparable to that of sorbistin A1
[37]; Table 3 overall, vs streptomycin or kanamycin
  antibacterial activity compared with streptomycin or kanamycin: generally weaker than that of streptomycin or kanamycin
[37]; resistant vs sensitive organisms
  activity against kanamycin and streptomycin-resistant organisms: as active against kanamycin and streptomycin-resistant organisms as against the sensitive ones
[38]
  MIC: 6.3 µg/mL (≈ 8.24 µM)
